Values quoted from earlier work in US5183802A, “Pharmaceutical compositions for intranasal administration of calcitonin” (ISF Societa per Azioni, priority 1987, dated 1993).

Settings: nasal absorption of insulin; compared with sodium caprate

CC1(C)[C@@H](O)CC[C@]2(C)[C@H]3C(=O)C=C4[C@@H]5C[C@@](C)(C(=O)[O-])CC[C@]5(C)CC[C@@]4(C)[C@]3(C)CC[C@@H]12.[Na+] [sodium glycyrrhetinate]
strength as absorption-enhancing agent for insulin: weaker than sodium caprate
